Among the data in ChEMBL document CHEMBL1909046, “DrugMatrix in vitro pharmacology data” are IC50 and Ki values, retold here.

The term IC50 denotes the midpoint of a concentration-inhibition curve. For orientation: Ki means the equilibrium dissociation constant of an inhibitor or competing ligand from its target.

Series [1] concerns the target T1, Muscarinic acetylcholine receptor M2 (Homo sapiens, UniProt P08172). Also: in other assays of this panel Not Active means under 50% inhibition at 10 µM.
T1 sequence (P08172 whole entry): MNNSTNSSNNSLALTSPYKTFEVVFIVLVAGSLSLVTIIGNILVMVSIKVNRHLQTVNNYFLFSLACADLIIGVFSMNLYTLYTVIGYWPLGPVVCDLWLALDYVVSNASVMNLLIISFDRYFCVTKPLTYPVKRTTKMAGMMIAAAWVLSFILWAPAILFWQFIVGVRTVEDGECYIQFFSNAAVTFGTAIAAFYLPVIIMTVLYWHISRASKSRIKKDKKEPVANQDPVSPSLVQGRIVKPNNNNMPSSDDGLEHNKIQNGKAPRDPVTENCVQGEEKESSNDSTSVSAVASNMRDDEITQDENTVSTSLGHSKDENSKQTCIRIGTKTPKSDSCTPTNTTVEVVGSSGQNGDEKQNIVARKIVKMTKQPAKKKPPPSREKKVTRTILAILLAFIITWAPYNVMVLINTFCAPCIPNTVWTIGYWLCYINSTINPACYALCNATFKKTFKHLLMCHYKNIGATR
Type of series: cell membranes, CHO-K1, Membrane. The note with it: cho-k1.

Series [2] is described as follows: DRUGMATRIX: GABAA, Flunitrazepam, Central radioligand binding (ligand: [3H] Flunitrazepam). Type of series: cell membranes, Rattus norvegicus, Wistar, Brain, Membrane. Conditions: Not Active = under 50% inhibition at 10 µM.
In another series the target is Insulin receptor (Rattus norvegicus, UniProt P15127). Type of series: cell membranes, Wistar, Liver, Membrane. Also: in other assays of this panel Not Active means under 50% inhibition at 10 µM.
Chain of Insulin receptor (P15127 27-759 limits assumed): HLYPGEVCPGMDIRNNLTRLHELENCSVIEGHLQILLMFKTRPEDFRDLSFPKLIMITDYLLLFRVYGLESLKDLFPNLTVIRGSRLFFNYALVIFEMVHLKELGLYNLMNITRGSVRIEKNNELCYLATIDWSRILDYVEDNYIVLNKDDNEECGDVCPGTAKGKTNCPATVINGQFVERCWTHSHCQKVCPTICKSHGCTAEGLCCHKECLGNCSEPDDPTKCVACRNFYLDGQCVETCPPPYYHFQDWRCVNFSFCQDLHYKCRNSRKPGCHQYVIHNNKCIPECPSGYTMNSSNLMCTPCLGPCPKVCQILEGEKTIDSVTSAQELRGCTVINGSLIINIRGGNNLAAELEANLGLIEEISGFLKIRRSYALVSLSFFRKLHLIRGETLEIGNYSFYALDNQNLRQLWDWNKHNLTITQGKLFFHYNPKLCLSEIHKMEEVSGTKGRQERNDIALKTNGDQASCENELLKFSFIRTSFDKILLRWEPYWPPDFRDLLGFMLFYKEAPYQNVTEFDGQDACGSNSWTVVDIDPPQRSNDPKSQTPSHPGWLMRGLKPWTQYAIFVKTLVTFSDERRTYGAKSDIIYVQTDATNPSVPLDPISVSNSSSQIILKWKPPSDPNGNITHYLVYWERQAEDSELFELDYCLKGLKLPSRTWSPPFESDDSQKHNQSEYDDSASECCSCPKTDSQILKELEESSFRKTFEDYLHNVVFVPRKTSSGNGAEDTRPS
Chain of Insulin receptor (P15127 764-1383 limits assumed): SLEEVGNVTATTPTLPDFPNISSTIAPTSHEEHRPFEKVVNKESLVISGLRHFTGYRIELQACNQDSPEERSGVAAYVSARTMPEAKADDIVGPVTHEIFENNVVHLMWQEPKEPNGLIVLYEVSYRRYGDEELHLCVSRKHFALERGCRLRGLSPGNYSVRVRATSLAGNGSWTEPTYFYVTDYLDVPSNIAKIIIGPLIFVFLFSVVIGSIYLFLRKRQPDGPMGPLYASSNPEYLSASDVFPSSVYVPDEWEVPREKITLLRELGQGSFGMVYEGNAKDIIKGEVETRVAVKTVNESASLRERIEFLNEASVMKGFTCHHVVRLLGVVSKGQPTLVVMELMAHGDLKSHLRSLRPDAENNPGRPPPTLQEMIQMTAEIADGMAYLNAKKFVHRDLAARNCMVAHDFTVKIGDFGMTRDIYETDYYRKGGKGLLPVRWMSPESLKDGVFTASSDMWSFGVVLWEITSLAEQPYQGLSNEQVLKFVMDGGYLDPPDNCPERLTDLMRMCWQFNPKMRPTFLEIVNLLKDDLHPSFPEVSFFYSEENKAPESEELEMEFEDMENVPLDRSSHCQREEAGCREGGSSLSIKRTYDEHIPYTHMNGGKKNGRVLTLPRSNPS
Series [3] can be described thus: DRUGMATRIX: Leukotriene, BLT (LTB4) radioligand binding (ligand: [3H]LTB4). It is filed as cell membranes, Membrane. The note with it: u-937; Not Active = under 50% inhibition at 10 µM.
In another series the target is Melanocortin receptor 4 (Homo sapiens, UniProt P32245). It is filed as cell membranes, Membrane. Conditions: hek293. Also: in other assays of this panel Not Active means under 50% inhibition at 10 µM.
Chain of Melanocortin receptor 4 (P32245 whole entry): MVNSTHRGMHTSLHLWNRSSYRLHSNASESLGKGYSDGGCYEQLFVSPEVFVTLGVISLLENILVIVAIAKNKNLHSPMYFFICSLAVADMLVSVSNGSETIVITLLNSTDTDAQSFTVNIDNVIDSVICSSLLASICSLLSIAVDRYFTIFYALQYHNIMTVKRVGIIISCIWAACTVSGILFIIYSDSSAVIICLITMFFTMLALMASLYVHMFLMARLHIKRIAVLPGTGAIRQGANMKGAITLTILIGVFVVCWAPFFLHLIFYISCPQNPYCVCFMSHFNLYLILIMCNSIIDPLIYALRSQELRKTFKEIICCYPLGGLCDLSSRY
The target of a further series is Mu-type opioid receptor (Homo sapiens, UniProt P35372). Nature of the series: DRUGMATRIX: Opiate mu (OP3, MOP) radioligand binding (ligand: [3H] Diprenorphine). It is filed as cell membranes, CHO-K1, Membrane. Conditions: Not Active = under 50% inhibition at 10 µM.
Chain of Mu-type opioid receptor (P35372 whole entry): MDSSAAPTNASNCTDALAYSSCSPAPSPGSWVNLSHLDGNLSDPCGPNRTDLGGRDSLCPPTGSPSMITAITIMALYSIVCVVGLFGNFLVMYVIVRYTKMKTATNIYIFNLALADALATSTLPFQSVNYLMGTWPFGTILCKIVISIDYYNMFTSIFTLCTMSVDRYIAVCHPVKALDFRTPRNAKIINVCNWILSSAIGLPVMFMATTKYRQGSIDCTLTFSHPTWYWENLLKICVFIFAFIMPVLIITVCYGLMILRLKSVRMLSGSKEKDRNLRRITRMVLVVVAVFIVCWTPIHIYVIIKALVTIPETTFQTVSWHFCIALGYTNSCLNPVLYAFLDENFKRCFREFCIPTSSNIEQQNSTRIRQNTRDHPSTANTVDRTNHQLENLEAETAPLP
Series [4] is described as follows: DRUGMATRIX: Phosphodiesterase PDE3 enzyme inhibition (substrate: [3H]cAMP + cAMP). It is filed as tissue-based, Homo sapiens. Conditions: platelet; Not Active = under 50% inhibition at 10 µM.
A short description of series [5]: DRUGMATRIX: Glutamate, NMDA, Phencyclidine radioligand binding (ligand: [3H] TCP). Conditions: Not Active = under 50% inhibition at 10 µM. It is filed as cell membranes, Rattus norvegicus, Wistar, Cerebral cortex, Membrane.
The target in another series is Cytochrome P450 3A4 (Homo sapiens, UniProt P08684). Conditions: bti-tn-5b1-4. Also: in other assays of this panel Not Active means under 50% inhibition at 10 µM.
Chain of Cytochrome P450 3A4 (P08684 whole entry): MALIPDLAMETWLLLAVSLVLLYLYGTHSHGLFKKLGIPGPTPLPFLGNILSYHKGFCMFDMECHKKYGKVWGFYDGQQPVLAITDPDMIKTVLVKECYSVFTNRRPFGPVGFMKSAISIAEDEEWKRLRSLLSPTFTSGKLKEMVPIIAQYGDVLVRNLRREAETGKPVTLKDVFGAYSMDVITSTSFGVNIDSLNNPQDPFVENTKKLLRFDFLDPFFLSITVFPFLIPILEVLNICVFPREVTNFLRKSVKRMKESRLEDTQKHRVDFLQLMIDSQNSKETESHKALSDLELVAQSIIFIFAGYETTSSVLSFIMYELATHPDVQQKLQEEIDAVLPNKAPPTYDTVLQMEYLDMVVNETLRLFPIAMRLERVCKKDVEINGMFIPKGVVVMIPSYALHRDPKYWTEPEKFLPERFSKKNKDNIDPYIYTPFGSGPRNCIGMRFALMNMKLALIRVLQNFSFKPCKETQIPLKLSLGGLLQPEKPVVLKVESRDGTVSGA

Regarding `COc1cc(N)nc2[nH]c(-c3ccc(F)cc3)c(-c3ccncc3)c12`, the IC50 result (in series [1]; in [2]; against Insulin receptor; in series [3]; on Melanocortin receptor 4; at Mu-type opioid receptor (cho-k1)) was “Not Active” throughout. The IC50 result in series [4] and in series [5] was “Not Active” each time. Moreover, the inhibitory constant (Ki) entry in series [2], in series [3], in [4] and in series [5] was “Not Active” in each case.
Turning to `COc1ccc(/C=C/C(=O)Nc2ccccc2C(=O)O)cc1OC`, the half-inhibitory concentration (IC50) entry (in series [1]; in [2]; against Insulin receptor; in series [3]; against Melanocortin receptor 4; against Cytochrome P450 3A4) was “Not Active” in each case. For the same molecule, the half-inhibitory concentration (IC50) result (at Mu-type opioid receptor (cho-k1); in [4]; in series [5]) was “Not Active” in each case. Besides, the Ki entry (in series [2]; in [3]; on Cytochrome P450 3A4; in [4]; in [5]) was “Not Active” each time.
For `CC(=O)Nc1nnc(S(N)(=O)=O)s1` [ACETAZOLAMIDE], the IC50 result (in series [1]; against Insulin receptor; against Melanocortin receptor 4; against Cytochrome P450 3A4; on Mu-type opioid receptor (cho-k1)) was “Not Active” in each case. On Cytochrome P450 3A4, the Ki result was “Not Active”.
With `O=c1[nH]c2ccccc2n1CCCN1CCC(n2c(=O)[nH]c3cc(Cl)ccc32)CC1` [DOMPERIDONE], the IC50 result (in series [1]; against Insulin receptor; against Melanocortin receptor 4) was “Not Active” each time.
`CC(C)OC(=O)C(C)(C)Oc1ccc(C(=O)c2ccc(Cl)cc2)cc1` [FENOFIBRATE]: the 50% inhibitory concentration (IC50) result (in series [1]; at Insulin receptor; on Melanocortin receptor 4; against Cytochrome P450 3A4; on Mu-type opioid receptor (cho-k1)) was “Not Active” each time. In addition, on Cytochrome P450 3A4, the inhibitory constant (Ki) result is recorded as “Not Active”.
For `OCCN1CCN(CCCN2c3ccccc3Sc3ccc(C(F)(F)F)cc32)CC1` [FLUPHENAZINE], the IC50 result on Insulin receptor was “Not Active”; against Melanocortin receptor 4, “Not Active”; at Mu-type opioid receptor (read-out: IC50) it was 20.7 µM. Also, on Mu-type opioid receptor, the affinity, expressed as Ki, was 8.42 µM.
Take `CN1C2CCCC1CC(NC(=O)c1nn(C)c3ccccc13)C2` (stereo unspecified) [GRANISETRON]: the IC50 entry (in series [1]; against Insulin receptor; against Melanocortin receptor 4; against Cytochrome P450 3A4; on Mu-type opioid receptor (cho-k1)) was “Not Active” in each case. Besides, the Ki entry on Cytochrome P450 3A4 is on record as “Not Active”.
As to `CC[C@@H](CO)NC(=O)[C@@H]1C=C2c3cccc4c3c(cn4C)C[C@H]2N(C)C1` [METHYSERGIDE], the half-maximal inhibitory concentration (IC50) entry (in series [1]; against Insulin receptor; against Melanocortin receptor 4; against Cytochrome P450 3A4; on Mu-type opioid receptor (cho-k1)) was “Not Active” throughout. Also, the inhibition constant Ki entry at Cytochrome P450 3A4 was “Not Active”.
For `CCN(CC)CC#CCOC(=O)C(O)(c1ccccc1)C1CCCCC1` (stereo unspecified) [OXYBUTYNIN], the IC50 result against Insulin receptor, on Melanocortin receptor 4, against Cytochrome P450 3A4 and on Mu-type opioid receptor (cho-k1) was “Not Active” in each case. For the same molecule, the inhibitory constant (Ki) result at Cytochrome P450 3A4 was “Not Active”.
For the molecule `CN(CCOc1ccc(CC2SC(=O)NC2=O)cc1)c1ccccn1` (stereo unspecified) [ROSIGLITAZONE], the 50% inhibitory concentration (IC50) result (in series [1]; in [2]; on Insulin receptor; in series [3]; at Melanocortin receptor 4; at Mu-type opioid receptor (cho-k1)) was “Not Active” in each case. Moreover, the IC50 entry in [4] and in series [5] was “Not Active” in each case. Also, the inhibition constant (Ki) result in series [2], in series [3], in [4] and in series [5] was “Not Active” throughout.
Turning to `C=C(C)[C@H]1Cc2c(ccc3c2O[C@@H]2COc4cc(OC)c(OC)cc4[C@@H]2C3=O)O1` [ROTENONE], the IC50 entry (in series [1]; in series [2]; against Insulin receptor; in [3]; at Melanocortin receptor 4; at Cytochrome P450 3A4) was “Not Active” each time. Also, the IC50 result in series [4] and in series [5] was “Not Active” each time. Besides, the inhibitory constant (Ki) result (in [2]; in series [3]; at Cytochrome P450 3A4; in [4]; in [5]) was “Not Active” throughout.
With `CO[C@H]1C[C@@H]2CC[C@@H](C)[C@@](O)(O2)C(=O)C(=O)N2CCCC[C@H]2C(=O)O[C@H]([C@H](C)C[C@@H]2CC[C@@H](O)[C@H](OC)C2)CC(=O)[C@H](C)/C=C(\C)[C@@H](O)[C@@H](OC)C(=O)[C@H](C)C[C@H](C)/C=C/C=C/C=C/1C` [SIROLIMUS], the half-maximal inhibitory concentration (IC50) result (in series [1]; in series [2]; against Insulin receptor; in series [3]; against Melanocortin receptor 4; on Mu-type opioid receptor (cho-k1)) was “Not Active” in each case. Moreover, the half-maximal inhibitory concentration (IC50) entry in [4] and in [5] was “Not Active” each time. The Ki result in series [2], in series [3], in series [4] and in [5] was “Not Active” throughout.
In the case of `CC(C)(C)NC[C@H](O)COc1nsnc1N1CCOCC1` [TIMOLOL], the IC50 entry (in series [1]; in series [2]; against Insulin receptor; in series [3]; against Melanocortin receptor 4; on Mu-type opioid receptor (cho-k1)) was “Not Active” each time. Besides, the IC50 result in series [4] and in [5] was “Not Active” in each case. For the same molecule, the Ki result in series [2], in [3], in series [4] and in [5] was “Not Active” throughout.
On to `CCS(=O)(=O)CCn1c([N+](=O)[O-])cnc1C` [TINIDAZOLE], for which the IC50 result (in series [1]; in series [2]; against Insulin receptor; in [3]; against Melanocortin receptor 4; at Mu-type opioid receptor (cho-k1)) was “Not Active” in each case. For the same molecule, the concentration for half-maximal inhibition (IC50) entry in series [4] and in series [5] was “Not Active” each time. Moreover, the Ki entry in [2], in [3], in series [4] and in series [5] was “Not Active” throughout.
Take `O=c1n(CCCN2CCN(c3cccc(Cl)c3)CC2)nc2ccccn12` [TRAZODONE]: the IC50 entry (in series [1]; against Insulin receptor; against Melanocortin receptor 4; at Cytochrome P450 3A4; at Mu-type opioid receptor (cho-k1)) was “Not Active” in each case. In addition, on Cytochrome P450 3A4, the inhibition constant (Ki) entry is “Not Active”.
For `O=C(O)C(Cl)(Cl)Cl` [TRICHLOROACETIC ACID], the IC50 entry (in series [1]; in series [2]; against Insulin receptor; in series [3]; on Melanocortin receptor 4; against Cytochrome P450 3A4) was “Not Active” each time. Also, the half-inhibitory concentration (IC50) entry in [4] and in [5] was “Not Active” each time. The Ki entry (in series [2]; in series [3]; at Cytochrome P450 3A4; in series [4]; in [5]) was “Not Active” in each case.
`COc1ccc(CN2CCNCC2)c(OC)c1OC` [TRIMETAZIDINE]: the half-maximal inhibitory concentration (IC50) entry (in [1]; in series [2]; at Insulin receptor; in series [3]; against Melanocortin receptor 4; on Mu-type opioid receptor (cho-k1)) was “Not Active” throughout. For the same molecule, the concentration for half-maximal inhibition (IC50) entry in series [4] and in series [5] was “Not Active” in each case. The inhibition constant (Ki) entry in series [2], in series [3], in [4] and in [5] was “Not Active” in each case.
STANNOUS FLUORIDE: the IC50 result (in series [1]; in [2]; against Insulin receptor; in series [3]; against Melanocortin receptor 4; against Cytochrome P450 3A4) was “Not Active” throughout. In addition, the IC50 entry in series [4] and in series [5] was “Not Active” each time. The Ki result (in [1]; in series [2]; at Insulin receptor; in [3]; at Melanocortin receptor 4; at Cytochrome P450 3A4) was “Not Active” in each case. In addition, the Ki result in series [4] and in [5] was “Not Active” in each case.
Turning to THIMEROSAL, the IC50 result (in [1]; in series [2]; at Insulin receptor; in series [3]; against Melanocortin receptor 4; at Cytochrome P450 3A4) was “Not Active” throughout. Further, the IC50 entry in series [4] and in series [5] was “Not Active” in each case. The Ki entry (in [1]; in [2]; at Insulin receptor; in series [3]; on Melanocortin receptor 4; at Cytochrome P450 3A4) was “Not Active” each time. In addition, the Ki result in [4] and in series [5] was “Not Active” throughout.
